In PubChem BioAssay (NCI):
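Five concentrations, 48 hours, 96-well plates. TGI is the concentration that stops growth completely.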

What was measured:
Test in all cases: growth of human tumour cells (NCI), 48 h
MDA-MB-435 = test system: MDA-MB-435
SK-MEL-28 melanoma = test system: SK-MEL-28 melanoma
MALME-3M melanoma = test system: MALME-3M melanoma
SF-539 CNS = test system: SF-539 CNS
HCT-15 colon = test system: HCT-15 colon
HCT-116 colon = test system: HCT-116 colon
MOLT-4 leukemia = test system: MOLT-4 leukemia
NCI-H460 lung = test system: NCI-H460 lung
SN12C renal = test system: SN12C renal
COLO 205 colon = test system: COLO 205 colon
OVCAR-5 ovarian = test system: OVCAR-5 ovarian
SF-295 CNS = test system: SF-295 CNS
A549 NSCLC = test system: A549 NSCLC
A498 renal = test system: A498 renal
PC-3 prostate = test system: PC-3 prostate
SW-620 colon = test system: SW-620 colon
UO-31 renal = test system: UO-31 renal
OVCAR-3 ovarian = test system: OVCAR-3 ovarian
HCC-2998 colon = test system: HCC-2998 colon
SNB-75 CNS = test system: SNB-75 CNS
NCI-H226 lung = test system: NCI-H226 lung
NCI-H23 lung = test system: NCI-H23 lung
HL-60(TB) leukemia = test system: HL-60(TB) leukemia
NCI-H522 lung = test system: NCI-H522 lung
786-0 renal = test system: 786-0 renal
DU-145 prostate = test system: DU-145 prostate
HOP-62 NSCLC = test system: HOP-62 NSCLC
UACC-257 melanoma = test system: UACC-257 melanoma
HS 578T breast = test system: HS 578T breast
SK-MEL-2 melanoma = test system: SK-MEL-2 melanoma
SR leukemia = test system: SR leukemia
EKVX NSCLC = test system: EKVX NSCLC
KM12 colon = test system: KM12 colon
MDA-N = test system: MDA-N
LOX IMVI melanoma = test system: LOX IMVI melanoma
K-562 leukemia = test system: K-562 leukemia
UACC-62 melanoma = test system: UACC-62 melanoma
SK-OV-3 ovarian = test system: SK-OV-3 ovarian
M14 melanoma = test system: M14 melanoma
SNB-19 CNS = test system: SNB-19 CNS
BT-549 breast = test system: BT-549 breast
ACHN renal = test system: ACHN renal
MCF7 breast = test system: MCF7 breast
SF-268 CNS = test system: SF-268 CNS
NCI/ADR-RES ovarian = test system: NCI/ADR-RES ovarian
CAKI-1 renal = test system: CAKI-1 renal
TK-10 renal = test system: TK-10 renal
U251 CNS = test system: U251 CNS
OVCAR-8 ovarian = test system: OVCAR-8 ovarian
T-47D breast = test system: T-47D breast
RXF 393 renal = test system: RXF 393 renal
OVCAR-4 ovarian = test system: OVCAR-4 ovarian
IGROV1 ovarian = test system: IGROV1 ovarian
CCRF-CEM leukemia = test system: CCRF-CEM leukemia
MDA-MB-231 breast = test system: MDA-MB-231 breast
RPMI-8226 leukemia = test system: RPMI-8226 leukemia
SK-MEL-5 melanoma = test system: SK-MEL-5 melanoma
HOP-92 NSCLC = test system: HOP-92 NSCLC

COc1cc(CNc2nc3cc(C(F)(F)F)ccc3nc2C(=O)O)cc(OC)c1OC
TGI (MDA-MB-435): 92.9 µM | TGI (SK-MEL-28 melanoma): > 100 µM | TGI (MALME-3M melanoma): > 100 µM | TGI (SF-539 CNS): 37.6 µM | TGI (HCT-15 colon): > 100 µM | TGI (HCT-116 colon): 29 µM | TGI (MOLT-4 leukemia): 58.1 µM | TGI (NCI-H460 lung): 82 µM | TGI (SN12C renal): 30.2 µM | TGI (COLO 205 colon): 53.7 µM | TGI (OVCAR-5 ovarian): > 100 µM | TGI (SF-295 CNS): 43.3 µM | TGI (A549 NSCLC): 61.5 µM | TGI (A498 renal): 60.7 µM | TGI (PC-3 prostate): 57.9 µM | TGI (SW-620 colon): > 100 µM | TGI (UO-31 renal): 39.4 µM | TGI (OVCAR-3 ovarian): 64.2 µM | TGI (HCC-2998 colon): > 100 µM | TGI (SNB-75 CNS): 74.7 µM | TGI (NCI-H226 lung): > 100 µM | TGI (NCI-H23 lung): > 100 µM | TGI (HL-60(TB) leukemia): 15.4 µM | TGI (NCI-H522 lung): > 100 µM | TGI (786-0 renal): 59.1 µM | TGI (DU-145 prostate): > 100 µM | TGI (HOP-62 NSCLC): 59.3 µM | TGI (UACC-257 melanoma): 63.6 µM | TGI (HS 578T breast): 57 µM | TGI (SK-MEL-2 melanoma): 47.1 µM | TGI (SR leukemia): > 100 µM | TGI (EKVX NSCLC): 57.1 µM | TGI (KM12 colon): 78.2 µM | TGI (MDA-N): 45.2 µM | TGI (LOX IMVI melanoma): > 100 µM | TGI (K-562 leukemia): 61 µM | TGI (UACC-62 melanoma): 28.9 µM | TGI (SK-OV-3 ovarian): > 100 µM | TGI (M14 melanoma): 35.7 µM | TGI (SNB-19 CNS): 56.7 µM | TGI (BT-549 breast): > 100 µM | TGI (ACHN renal): 73.3 µM | TGI (MCF7 breast): 49.9 µM | TGI (SF-268 CNS): > 100 µM | TGI (NCI/ADR-RES ovarian): 76.4 µM | TGI (CAKI-1 renal): 78.9 µM | TGI (TK-10 renal): 39.7 µM | TGI (U251 CNS): 31.2 µM | TGI (OVCAR-8 ovarian): > 100 µM | TGI (T-47D breast): 83.8 µM | TGI (RXF 393 renal): > 100 µM

N#CCCN(CCN(CCN(C(=O)Nc1ccccc1)c1ccccc1)C(=O)Nc1ccccc1)C(=O)Nc1ccccc1
TGI (MDA-MB-435): > 100 µM | TGI (SK-MEL-28 melanoma): > 100 µM | TGI (SF-539 CNS): > 100 µM | TGI (HCT-15 colon): > 100 µM | TGI (HCT-116 colon): > 100 µM | TGI (MOLT-4 leukemia): > 100 µM | TGI (SN12C renal): > 100 µM | TGI (COLO 205 colon): > 100 µM | TGI (OVCAR-4 ovarian): > 100 µM | TGI (OVCAR-5 ovarian): > 100 µM | TGI (SF-295 CNS): > 100 µM | TGI (A549 NSCLC): > 100 µM | TGI (A498 renal): > 100 µM | TGI (PC-3 prostate): > 100 µM | TGI (SW-620 colon): > 100 µM | TGI (UO-31 renal): > 100 µM | TGI (OVCAR-3 ovarian): > 100 µM | TGI (HCC-2998 colon): > 100 µM | TGI (SNB-75 CNS): > 100 µM | TGI (NCI-H226 lung): > 100 µM | TGI (IGROV1 ovarian): > 100 µM | TGI (NCI-H23 lung): > 100 µM | TGI (786-0 renal): > 100 µM | TGI (DU-145 prostate): > 100 µM | TGI (HOP-62 NSCLC): > 100 µM | TGI (UACC-257 melanoma): > 100 µM | TGI (HS 578T breast): > 100 µM | TGI (SK-MEL-2 melanoma): > 100 µM | TGI (CCRF-CEM leukemia): > 100 µM | TGI (MDA-MB-231 breast): > 100 µM | TGI (EKVX NSCLC): > 100 µM | TGI (KM12 colon): > 100 µM | TGI (MDA-N): > 100 µM | TGI (LOX IMVI melanoma): > 100 µM | TGI (UACC-62 melanoma): > 100 µM | TGI (SK-OV-3 ovarian): > 100 µM | TGI (M14 melanoma): > 100 µM | TGI (RPMI-8226 leukemia): > 100 µM | TGI (SK-MEL-5 melanoma): > 100 µM | TGI (SNB-19 CNS): > 100 µM | TGI (BT-549 breast): > 100 µM | TGI (ACHN renal): > 100 µM | TGI (HOP-92 NSCLC): > 100 µM | TGI (MCF7 breast): > 100 µM | TGI (SF-268 CNS): > 100 µM | TGI (NCI/ADR-RES ovarian): > 100 µM | TGI (CAKI-1 renal): > 100 µM | TGI (TK-10 renal): > 100 µM | TGI (U251 CNS): > 100 µM | TGI (OVCAR-8 ovarian): > 100 µM | TGI (T-47D breast): > 100 µM | TGI (RXF 393 renal): > 100 µM
